According to patent US7902361B2, “Pyrimidin-4-yl-3, 4-thione compounds and their use in therapy” (Cyclacel Limited, priority 2003, dated 2011):
Where two headings read alike, the source gives them in different places. Marks after values point to notes of the source that are not given here.

Tests used:
[1] = Oral glucose tolerance in male ZDF fa/fa rats; format: in vivo, rat; conditions: for % Glucose Decrease AUC (−270–180 min) / % Glucose decrease-AUC (0–180 min): ZDF fa/fa rats, oral glucose tolerance, 30 mg/kg per os twice (−270 and −30 min)
Experimental: The ability of example compounds of the present invention to improve glucose metabolism was tested in 12-13 week old male ZDF fa/fa rats. The test animals (10-15 mmol/L fasting glucose level) were dosed twice at 30 mg/kg and the glucose challenge was given at time 0. […] Most of these blood levels were below the EC50 values determined in cellular assays.
12-13 weeks old male ZDF fa/fa rats were used to study the effect of example compounds on oral glucose tolerance. […] Body weight was recorded three times per week. Test compounds were dissolve in a formulation of 10% DMSO, 5% Tween, 5% Span 20, 30% PEG 400 and 50% water (v/v) to provide final solutions at 5 mg/mL concentration. Each experimental group contained 7 animals. After an 16 h overnight fast the test compounds were administered at 30 mg/kg per os twice (at −270 min and −30 min) before the oral glucose tolerance test was commenced (2 g glucose/kg per os as a 40% solution introduced via feeding tube). A control group was dosed in a similar manner with the vehicle only. Blood sampling for blood glucose measurement (20 μL blood) was performed at −270, 0, 15, 30, 60, 90, 120 and 180 min. Mixed venous blood was collected from the tail vein into 20-μL glass capillaries, which were placed in a standard tube filled with 1 mL solution for hemolysis. Glucose levels were measured using the glucose oxidase procedure (Super G Glukosemessgeraet; Dr Mueller Geraetebau, Freital, Germany). In addition, 50 μL blood samples were taken at 30 and 60 min after the glucose dose, placed in heparinized tubes, which were then frozen immediately in liquid nitrogen. The bioanalytical method used employed isocratic elution liquid chromatography—tandem mass spectrometry in electrospray positive ion multiple reaction monitoring mode.

[2] = system: glycogen synthase; test: Glycogen synthase activation in mouse adipocytes; format: cell-based; conditions: for Max FI (% to LiCl): maximum fold induction normalised to 40 mM LiCl
Experimental: 3T3-L1 mouse pre-adipocytes were grown in DMEM medium supplemented with 10% foetal calf serum (FCS) and penicillin/streptomycin until fully confluent. Cell differentiation was initiated by the addition of 0.5 mM IBMX (2-isobutyl-1-methylxanthine), 0.25 μM dexamethasone and 1 μg/mL insulin into the growth media. The differentiation medium was replaced after 4 days and 7 days. After the initiation of differentiation the cells were grown for an additional 3 days in DMEM, 10% FCS and antibiotics.
HEK293 cells, mouse adipocytes or rat myotubes were treated in 10-cm Petri dishes with different concentrations of GSK3 inhibitor example compounds for 90 minutes. At the end of the treatment period the cells were washed and scraped in ice cold PBS buffer supplemented with 20 mM NaF. The cells were pelleted by centrifugation and lysed in 300 μL buffer (50 mM.HEPES pH 7.5, 10 mM EDTA, 100 mM NaF, 5 mM DTT, protease inhibitor cocktail (Sigma)). After incubation for 30 min on ice the samples were cleared by centrifugation. The activity of glycogen synthase was determined in the soluble fraction at two different concentrations of […]—low (0.1 mM) and high (10 mM). The reaction was carried out for 30 min (buffer: 50 mM Tris pH 7.8, 20 mM EDTA, 25 mM NaF, 5 mM DTT). The reaction mixture (total volume of 90 μL) contained 1% glycogen, 0.3 mM UDP-glucose and 0.06 μCi ^14C-UDP-glucose. Reaction was stopped by transfer of 70 μL to a GFC 96-well filter plate, containing 140 μL 100% ethanol and the glycogen was allowed to precipitate for 1 h at 4° C. The wells were washed 2 times with 200 μL 66% ethanol and than allowed to dry. Subsequently, 100 μL of scintillation liquid was added, and plates were sealed and counted in a Packard Topcounter. Glycogen synthase activation was calculated as the ratio between the incorporation of labelled ^14C-UDP-glucose in glycogen at low and high concentration of […] (fractional velocity).
The ability of GSK3 inhibitors to activate glycogen synthase was determined in HEK293 cells, mouse adipocytes and rat myotubed. The compounds tested activated glycogen synthase in all three cellular systems with EC50 values in the sub-micromolar to low micromolar concentration range. Most of them exceeded the stimulation induced by 40 mM LiCl (the highest compound concentration used in the assay was 20 μM).

[3] = biological target: T1, aurora A (Homo sapiens, UniProt O14965); test: Kinase assay aurora A; format: biochemical; conditions: Ki calculated (Cheng-Prusoff) from experimentally determined IC50 and Km,ATP; read-out: Kinase Inhibition Ki Aurora A
T1 sequence (O14965 1-403): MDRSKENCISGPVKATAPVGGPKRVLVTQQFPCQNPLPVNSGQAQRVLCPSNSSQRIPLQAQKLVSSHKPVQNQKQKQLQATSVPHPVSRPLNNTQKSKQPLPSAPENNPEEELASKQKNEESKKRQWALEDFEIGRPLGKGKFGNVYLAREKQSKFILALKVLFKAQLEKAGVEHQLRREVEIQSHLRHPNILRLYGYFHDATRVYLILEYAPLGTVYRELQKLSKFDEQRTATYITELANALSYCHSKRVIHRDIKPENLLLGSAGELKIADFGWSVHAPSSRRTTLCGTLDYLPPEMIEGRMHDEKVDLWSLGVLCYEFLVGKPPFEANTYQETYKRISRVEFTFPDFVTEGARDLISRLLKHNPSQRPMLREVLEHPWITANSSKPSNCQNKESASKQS
Procedure, shortened: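 Radiometric assays measured transfer of radioactive phosphate from ATP onto polypeptide substrates, using 2-4 μg recombinant active enzyme in buffer typically containing 25 mM β-glycerophosphate, 20 mM MOPS, 5 mM EGTA, 1 mM DTT and 1 mM Na3VO3 at pH 7.4. Reactions were stopped on ice, filtered on P81 or GF/C plates and washed with orthophosphoric acid. Incorporated radioactivity was scintillation-counted.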

[4] = male ZDF fa/fa rats, 30 mg/kg per os twice, oral glucose tolerance test

EC50 ([2]; Adipocyte) [nM]	Ki [3] [nM]	SMILES	% Glucose Decrease AUC (−270–180 min) [1] [%]	% Glucose decrease-AUC (0–180 min) [1]	Max FI (% to LiCl) [2]	glucose AUC [1, 4]	decreased blood glucose levels [1, 4]	EC50 [2] [nM]
432 ± 179	410	CCNS(=O)(=O)c1cccc(Nc2nccc(-c3sc(=O)n(C)c3C)n2)c1 [Compound 62, 3-[4-(3,4-Dimethyl-2-oxo-2,3-dihydro-thiazol-5-yl)-pyrimidin-2-ylamino]-N-ethyl-benzenesulfonamide]	9	3.6%	234 % to LiCl	–	–	–
2190 ± 400	250	Cc1c(-c2ccnc(Nc3cccc(S(=O)(=O)NCCO)c3)n2)sc(=O)n1C [Compound 75, 3-[4-(3,4-Dimethyl-2-oxo-2,3-dihydro-thiazol-5-yl)-pyrimidin-2-ylamino]-N-(2-hydroxy-ethyl)-benzenesulfonamide]	13	6.4%	181 % to LiCl	–	–	–
148 ± 70	170	CC(=O)Nc1cc(Nc2nccc(-c3sc(=O)n(C)c3C)n2)cc(C(F)(F)F)c1 [Compound 64, N-{3-[4-(3,4-Dimethyl-2-oxo-2,3-dihydro-thiazol-5-yl)-pyrimidin-2-ylamino]-5-trifluoromethyl-phenyl}-acetamide]	9	8%	143 % to LiCl	moderate decrease	–	–
9550 ± 7400	–	Cc1c(-c2ccnc(Nc3cc(Br)cc(C(F)(F)F)c3)n2)sc(=O)n1C [Compound 68, 5-[2-(3-Bromo-5-trifluoromethyl-phenylamino)-pyrimidin-4-yl]-3,4-dimethyl-3H-thiazol-2-one]	5	8.4* %	50 % to LiCl	moderate decrease	statistically significant	–
4830 ± 4600	390	COCCNS(=O)(=O)c1cccc(Nc2nccc(-c3sc(=O)n(C)c3C)n2)c1 [Compound 67, 3-[4-(3,4-Dimethyl-2-oxo-2,3-dihydro-thiazol-5-yl)-pyrimidin-2-ylamino]-N-(2-methoxy-ethyl)-benzenesulfonamide]	14	7.5%	177 % to LiCl	moderate decrease	–	–

SMILES	EC50 ([2]; Adipocyte) [nM]	Ki [3] [nM]	% Glucose Decrease AUC (−270–180 min) [1] [%]	% Glucose decrease-AUC (0–180 min) [1]	Max FI (% to LiCl) [2]	glucose AUC [1, 4]	decreased blood glucose levels [1, 4]	EC50 [2] [nM]
CNc1cc(Nc2nccc(-c3sc(=O)n(C)c3C)n2)cc(C(F)(F)F)c1 [Compound 76, 3,4-Dimethyl-5-[2-(3-methylamino-5-trifluoromethyl-phenylamino)-pyrimidin-4-yl]-3H-thiazol-2-one]	–	150	0	0.5%	196 % to LiCl	–	–	1110 ± 530
